Source: patent US20080108581A1, “Compounds and Their Use for Specific and Simultaneous Inhibition of Genes Involved In Diseases and Related Drugs” (INSTITUT NATIONAL DE LA SANTE ET DE LA RECHERCHE MEDICAL …, priority 2003, published 2008)

Assays:
human topoisomerase I = biological target: T1, human topoisomerase I (Homo sapiens, UniProt P11387); assay: Topoisomerase I DNA cleavage test on radiolabelled duplex; format: biochemical; details: in vitro, free inhibitors
T1 construct: purchased Invitrogen Inc
T1 sequence (P11387 1-765): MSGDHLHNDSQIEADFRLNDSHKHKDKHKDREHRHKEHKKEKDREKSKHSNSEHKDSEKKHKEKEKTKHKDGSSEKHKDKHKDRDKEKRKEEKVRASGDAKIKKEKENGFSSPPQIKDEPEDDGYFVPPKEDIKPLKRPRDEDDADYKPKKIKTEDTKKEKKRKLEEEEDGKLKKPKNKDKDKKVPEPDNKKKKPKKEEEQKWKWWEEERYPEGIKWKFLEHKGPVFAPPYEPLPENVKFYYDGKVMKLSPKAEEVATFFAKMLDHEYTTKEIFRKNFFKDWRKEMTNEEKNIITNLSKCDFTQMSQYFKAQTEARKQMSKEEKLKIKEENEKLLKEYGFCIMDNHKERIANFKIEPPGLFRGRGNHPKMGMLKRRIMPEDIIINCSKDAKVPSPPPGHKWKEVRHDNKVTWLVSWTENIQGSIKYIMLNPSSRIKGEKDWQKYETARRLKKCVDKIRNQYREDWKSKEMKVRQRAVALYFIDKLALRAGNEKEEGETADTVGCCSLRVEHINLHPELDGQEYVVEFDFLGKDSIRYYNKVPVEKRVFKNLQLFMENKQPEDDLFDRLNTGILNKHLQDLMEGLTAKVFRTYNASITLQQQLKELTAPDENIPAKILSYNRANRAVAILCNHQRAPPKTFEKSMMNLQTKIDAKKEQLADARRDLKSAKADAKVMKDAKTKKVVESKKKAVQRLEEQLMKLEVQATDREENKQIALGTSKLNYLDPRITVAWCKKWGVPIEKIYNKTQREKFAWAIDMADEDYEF
Procedure: The radiolabelled 324-bp duplex in position 3′ on the oligopyrimidine strand (well 1) was incubated with topoisomerase I in the presence of three camptothecin derivatives (wells 2-4, 10CPT, 7CPT, SCPT), or of these three derivatives conjugated with TFO 16 (wells 5-7, TFO16-L4-10CPT, TFO16-L6-CPT, TFO16-L3-SCPT). The cleavage sites are indicated by letters and the binding site of the conjugate is shown diagrammatically. L3=diaminopropynyl; L4=diaminobutyl, L6=diaminohexyl; after incubation, the protein is digested by a treatment with SDS/proteinase K and the cleavage products are analysed on a denaturating gel;
The radiolabelled duplexes (50 nM) are incubated for 1 hour at 30° C., in 50 mM. […] After ethanol precipitation, all the samples are re-suspended in 6 μl of formamide, heated to 90° C. for 4 minutes and cooled again on ice for 4 mins, before being deposited on 8% and 10% denaturing polyacrylamide gel [19/1 acrylamide:bisacrylamide], for the long and short targets respectively, containing 7.5 M urea in 1× TBE buffer (50 mM Tris-HCl, 55 mM boric acid, 1 Mm EDTA), In order to quantify the cleavage intensity, the gels are scanned with a Dynamics 445SI Phosphorimager. […]
The cleavage specificity of the conjugates was measured in vitro by a standard topoisomerase I cleavage test. […]

[1] = biological target: T2, DNA/topo I cleavage complexes (Homo sapiens, UniProt P11387); assay: Formation of DNA/topo I cleavage complexes in HeLa nuclei followed by immunoblot (CsCl gradient, Western slot blot); format: cell-based; details: 3 h at 37° C., 5 μM (FIG. 8)
T2 construct: HeLa nucleus cells (5000000) were prepared and incubated 3 h at 37° C. with the topoisomerase I poison; endogenous in cells; host or cells: HeLa nuclei
T2 sequence (P11387 1-765): T1 sequence (P11387 1-765)
Procedure: FIG. 8 gives correlation results of the biological effects with the formation of DNA/topo I/CPT complexes: the formation of the complexes in the cells was followed by immunoblot.
In the experiments corresponding to FIG. 8, HeLa nucleus cells (5000000) were prepared and incubated 3 h at 37° C. with the topoisomerase I poison free (CPT or ST1578) or coupled to oligonucleotide (TFO-L4-10CPT or TFO-ST1578 or LNA-ST1578), or with a control oligonucleotide (TFO-NH2 or TFO-NPh2) at various concentration (in FIG. 8 at 5 μM). After adding of sarkosyl, the lysates were ultracentrifugated 16 h on a gradient of CsCl. 12 fractions were recovered and analysed by Western slot blot to show the fractions containing topoisomerase I (in 1-4 for the untreated control (mock)).
The fractions containing the DNA were identified by measuring absorbance at 260 nm (fractions 8-10).

SMILES	stimulation of DNA cleavage by topoisomerase 1 compared with 7-aminoethyl-camptothecin (human topoisomerase I)	fractions of the CsCl gradient containing topoisomerase I (stabilisation of DNA/topo I cleavage complexes) [1]
CC[C@@]1(O)C(=O)OCc2c1cc1n(c2=O)Cc2cc3cc(C(=O)O)ccc3nc2-1 [10-carboxycamptothecin, 20S-10-carboxycamptothecin]	more effectively	
CC[C@@]1(O)C(=O)OCc2c1cc1n(c2=O)Cc2cc3ccccc3nc2-1 [CPT, camptothecin]		observed only in fractions containing DNA
CC[C@@]1(O)C(=O)OCc2c1cc1n(c2=O)Cc2c-1nc1ccccc1c2C=NCCN [ST1578, 20S-7-aminoethyliminomethylcamptothecin]		observed only in fractions containing DNA
